Measurements taken from the CheMixHub viscosity set.
Several values for one entry are separate records, joined by “and”; a condition that tells them apart may be missing. Equal values may be shown once.

Experiment: xn = mol fraction of the nth substance listed

CNCCO + CCCCOCCO
viscosity, 101.3 kPa
Conditions | 293.15 K | 298.15 K | 303.15 K | 308.15 K | 313.15 K | 318.15 K | 323.15 K
x1 = 0.149 | 4.016 mPa·s | 3.469 mPa·s | 3.02 mPa·s | 2.649 mPa·s | 2.339 mPa·s | 2.077 mPa·s | 1.856 mPa·s
x1 = 0.403 | 5.748 mPa·s | 4.862 mPa·s | 4.158 mPa·s | 3.584 mPa·s | 3.112 mPa·s | 2.725 mPa·s | 2.401 mPa·s
x1 = 0.512 | 6.672 mPa·s and 6.73 mPa·s | 5.591 mPa·s and 5.64 mPa·s | 4.739 mPa·s and 4.78 mPa·s | 4.054 mPa·s and 4.09 mPa·s | 3.5 mPa·s and 3.53 mPa·s | 3.045 mPa·s and 3.07 mPa·s | 2.667 mPa·s and 2.69 mPa·s
x1 = 0.611 | 7.632 mPa·s | 6.341 mPa·s | 5.331 mPa·s | 4.528 mPa·s | 3.883 mPa·s | 3.358 mPa·s | 2.926 mPa·s
x1 = 0.702 | 8.54 mPa·s | 7.04 mPa·s | 5.87 mPa·s | 4.95 mPa·s | 4.22 mPa·s | 3.63 mPa·s | 3.15 mPa·s
x1 = 0.786 | 9.713 mPa·s | 7.929 mPa·s | 6.563 mPa·s | 5.498 mPa·s | 4.657 mPa·s | 3.983 mPa·s | 3.436 mPa·s
x1 = 0.934 | 12.07 mPa·s | 9.674 mPa·s | 7.893 mPa·s | 6.525 mPa·s | 5.461 mPa·s | 4.621 mPa·s | 3.948 mPa·s

CCOCCO + CCc1ccccc1
viscosity [mPa·s]
Conditions | 298.15 K | 308.15 K
101 kPa, x1 = 0.0573 | 0.658 | 0.557
101 kPa, x1 = 0.1487 | 0.696 | 0.597
101 kPa, x1 = 0.2498 | 0.749 | 0.648
101 kPa, x1 = 0.3527 | 0.817 | 0.708
101 kPa, x1 = 0.4489 | 0.895 | 0.773
101 kPa, x1 = 0.4998 | 0.944 | 0.812
101 kPa, x1 = 0.5485 | 0.995 | 0.852
101 kPa, x1 = 0.6501 | 1.121 | 0.945
101 kPa, x1 = 0.7484 | 1.273 | 1.05
101 kPa, x1 = 0.8508 | 1.469 | 1.178
101 kPa, x1 = 0.9547 | 1.721 | 1.331
101.33 kPa, x2 = 0.0993 | 1.589 | –
101.33 kPa, x2 = 0.1968 | 1.378 | –
101.33 kPa, x2 = 0.293 | 1.22 | –
101.33 kPa, x2 = 0.4069 | 1.055 | –
101.33 kPa, x2 = 0.5133 | 0.929 | –
101.33 kPa, x2 = 0.6286 | 0.822 | –
101.33 kPa, x2 = 0.7484 | 0.736 | –
101.33 kPa, x2 = 0.8672 | 0.677 | –

CCOCCO + CCCCCCCCC
viscosity [mPa·s], 101.33 kPa
Conditions | x1 = 0.098 | x1 = 0.2031 | x1 = 0.3023 | x1 = 0.4074 | x1 = 0.505 | x1 = 0.601 | x1 = 0.7022 | x1 = 0.8034 | x1 = 0.9003
298.15 K | 0.662 | 0.696 | 0.746 | 0.822 | 0.9 | 1.024 | 1.107 | 1.263 | 1.469
303.15 K | 0.62 | 0.646 | 0.69 | 0.753 | 0.821 | 0.929 | 1.005 | 1.137 | 1.316
308.15 K | 0.577 | 0.601 | 0.64 | 0.697 | 0.757 | 0.853 | 0.916 | 1.034 | 1.191
313.15 K | 0.537 | 0.558 | 0.596 | 0.642 | 0.698 | 0.778 | 0.837 | 0.939 | 1.075

CNC(C)=O + CCCCN
308.15 K, 101 kPa
Conditions | viscosity [mPa·s]
x1 = 0.0335 | 0.414
x1 = 0.1849 | 0.5985
x1 = 0.3822 | 0.9135
x1 = 0.4385 | 1.049
x1 = 0.5671 | 1.387
x1 = 0.6888 | 1.829
x1 = 0.7756 | 2.15
x1 = 0.8792 | 2.675
x1 = 0.9781 | 3.172

Oc1ccc(Cl)cc1 + CCCCCOC(C)=O
Conditions | viscosity [mPa·s]
298.15 K, 101 kPa, x1 = 0.5 | 1.27

CC(C)CCO + CCO
viscosity [mPa·s]
Conditions | x1 = 0.0558 | x1 = 0.1156 | x1 = 0.1843 | x1 = 0.2587 | x1 = 0.3588 | x1 = 0.4457 | x1 = 0.5523 | x1 = 0.6771 | x1 = 0.8255 | x2 = 0.5
298.15 K, 100 kPa | 1.291 | 1.591 | 1.919 | 2.235 | 2.576 | 2.831 | 3.086 | 3.312 | 3.463 | –
303.15 K, 100 kPa | 1.175 | 1.471 | 1.806 | 2.029 | 2.353 | 2.549 | 2.756 | 2.917 | 2.945 | –
308.15 K, 100 kPa | 1.236 | 1.672 | 2.049 | 2.279 | 2.559 | 2.699 | 2.763 | 2.814 | 2.815 | –
308.15 K, 101 kPa | – | – | – | – | – | – | – | – | – | 1.747
313.15 K, 101 kPa | – | – | – | – | – | – | – | – | – | 1.519
318.15 K, 101 kPa | – | – | – | – | – | – | – | – | – | 1.372
